From US9994587B2, “HIV protease inhibitors” (priority 2014, dated 2018)

Biological target: T1, wildtype HIV-1 protease (Human immunodeficiency virus type 1 group M subtype B, UniProt P04585)
T1 construct: preincubated with the HIV-1 protease (wild type) enzyme in assay buffer; made in house; host or cells: Escherichia coli
Test: Assay for inhibition of microbial expressed HIV protease (Pepcleav)
Type: biochemical
Details: wild type HIV-1 protease 20 pM, peptide substrate 400 micromolar, pH 5.5; mean of at least two independent experiments
Procedure: Assay for Inhibition of Microbial Expressed HIV Protease (“Pepcleav”)
Studies of the inhibition of the wildtype HIV-1 protease (which was expressed in Escherichia coli) were carried out with a peptide substrate [Val-Ser-Gln-Asn-(βnaphtyl)Ala-Pro-Ile-Val (SEQ ID NO 1)]. The inhibitor was first preincubated with the HIV-1 protease (wild type) enzyme in assay buffer (50 mM sodium acetate, pH 5.5, 100 mM NaCl, and 0.1% BSA) for 30 minutes at room temperature. Substrate was added to 400 micromolar in a total volume of 20 microliters containing 20 picomolar HIV-1 protease (final) and the reaction is incubated for 1 hour at 30° C. The reaction was quenched with the addition of formic acid and indinavir to 0.012% and 150 nM final concentrations, respectively. Product formation was determined after separation of product and substrate on a Zorbax Eclipse XDB-C18 column connected to an API 4000 mass spectrometer (Applied Biosystems) with multiple reaction monitoring (transitions were 644.5/428.9 and 615.4/422.2 (M1/M3) for product and indinavir respectively). The extent of inhibition of the reaction was determined from the peak area of the products.

SMILES | IC50 [nM]
COC(=O)N[C@H](C(=O)Nc1ccccc1CCC1CNC[C@@H](COc2ccccc2-c2cc[nH]n2)O1)C(c1ccccc1)c1ccccc1 (stereo in doubt) [Example 110, Nα-(methoxycarbonyl)-β-phenyl-N-(2-{2-[(2R,6S)-6-{[2-(1H-pyrazol-3-yl)phenoxy]methyl}morpholin-2-yl]ethyl}phenyl)-L-phenylalaninamide] | 250
COC(=O)N[C@H](C(=O)NCCCCC1CNC[C@@H](CS(=O)(=O)c2ccc(N)cc2)O1)C(c1ccccc1)c1ccccc1 (stereo partly drawn) [Example 1, Methyl N-[(1S)-1-[4-[(6S)-6-[(4-aminophenyl)sulfonylmethyl]morpholin-2-yl]butylcarbamoyl]-2,2-diphenyl-ethyl]carbamate] | 450
COC(=O)N[C@H](C(=O)NCCCC1CNC[C@@H](CSc2ccc(Cl)cc2)O1)C(c1ccccc1)c1ccccc1 (stereo partly drawn) [Example 2, methyl N-[(1S)-1-benzhydryl-2-[3-[(6S)-6-[(4-chlorophenyl)sulfanylmethyl]morpholin-2-yl]propylamino]-2-oxo-ethyl]carbamate] | 300
COC(=O)N[C@H](C(=O)NCCCC1CNC[C@@H](CSc2ccc(Cl)cc2C)O1)C(c1ccccc1)c1ccccc1 (stereo partly drawn) [Example 3, methyl N-[(1S)-1-benzhydryl-2-[3-[(6S)-6-[(4-chloro-2-methyl-phenyl)sulfanylmethyl]morpholin-2-yl]propylamino]-2-oxo-ethyl]carbamate] | 420
COC(=O)N[C@H](C(=O)Nc1ccccc1CCC1CNC[C@@H](CS(=O)(=O)c2ccc3ccccc3c2)O1)C(c1ccccc1)c1ccccc1 (stereo partly drawn) [Example 4, methyl N-[(1S)-1-benzhydryl-2-[[2-[2-[(6S)-6-(2-naphthylsulfonylmethyl)morpholin-2-yl]ethyl]phenyl]amino]-2-oxo-ethyl]carbamate] | 62
COC(=O)N[C@H](C(=O)Nc1ccccc1CCC1CNC[C@@H](COc2ccc(Cl)cc2)O1)C(c1ccccc1)c1ccccc1 (stereo partly drawn) [Example 5, methyl N-[(1S)-1-benzhydryl-2-[[2-[2-[(6S)-6-[(4-chlorophenoxy)methyl]morpholin-2-yl]ethyl]phenyl]amino]-2-oxo-ethyl]carbamate] | 58
COC(=O)N[C@H](C(=O)Nc1ccccc1CCC1CNC[C@@H](CSc2ccc(Cl)cc2)O1)C(c1ccccc1)c1ccccc1 (stereo partly drawn) [Example 6, methyl N-[(1S)-1-benzhydryl-2-[[2-[2-[(6S)-6-[(4-chlorophenyl)sulfanylmethyl]morpholin-2-yl]ethyl]phenyl]amino]-2-oxo-ethyl]carbamate] | 1.9
COC(=O)N[C@H](C(=O)Nc1ccccc1CC[C@@H]1CNC[C@@H](CSc2ccc(Cl)cc2)O1)C(c1ccccc1)c1ccccc1 [Example 7, methyl N-[(1S)-1-benzhydryl-2-[[2-[2-[(2R,6S)-6-[(4-chlorophenyl)sulfanylmethyl]morpholin-2-yl]ethyl]phenyl]amino]-2-oxo-ethyl]carbamate] | 2
COC(=O)N[C@H](C(=O)Nc1ccccc1CC[C@@H]1CNC[C@@H](CSc2ccc(Br)cc2)O1)C(c1ccccc1)c1ccccc1 [Example 8, methyl N-[(1S)-1-benzhydryl-2-[[2-[2-[(2R,6S)-6-[(4-bromophenyl)sulfanylmethyl]morpholin-2-yl]ethyl]phenyl]amino]-2-oxo-ethyl]carbamate] | 2.1
COC(=O)N[C@H](C(=O)Nc1ccccc1CC[C@@H]1CNC[C@@H](COc2ccc(Br)cc2)O1)C(c1ccccc1)c1ccccc1 [Example 9, methyl N-[(1S)-1-benzhydryl-2-[[2-[2-[(2R,6S)-6-[(4-bromophenoxy)methyl]morpholin-2-yl]ethyl]phenyl]amino]-2-oxo-ethyl]carbamate] | 18
COC(=O)N[C@H](C(=O)Nc1ccccc1CC[C@@H]1CNC[C@@H](COc2ccc(Br)cc2[N+](=O)[O-])O1)C(c1ccccc1)c1ccccc1 [Example 10, methyl N-[(1S)-1-benzhydryl-2-[[2-[2-[(2R,6S)-6-[(4-bromo-2-nitro-phenoxy)methyl]morpholin-2-yl]ethyl]phenyl]amino]-2-oxo-ethyl]carbamate] | 120
COC(=O)N[C@H](C(=O)Nc1ccccc1CC[C@@H]1CNC[C@@H](COc2ccc(-c3ccccc3)cc2)O1)C(c1ccccc1)c1ccccc1 [Example 11, methyl N-[(1S)-1-benzhydryl-2-oxo-2-[[2-[2-[(2R,6S)-6-[(4-phenylphenoxy)methyl]morpholin-2-yl]ethyl]phenyl]amino]ethyl] carbamate] | 6.6
COC(=O)N[C@H](C(=O)Nc1ccccc1CC[C@@H]1CNC[C@@H](COc2ccc(Cc3ccccc3)cc2)O1)C(c1ccccc1)c1ccccc1 [Example 12, methyl N-[(1S)-1-benzhydryl-2-[[2-[2-[(2R,6S)-6-[(4-benzylphenoxy)methyl]morpholin-2-yl]ethyl]phenyl]amino]-2-oxo-ethyl]carbamate] | 24
COC(=O)N[C@H](C(=O)Nc1ccccc1CC[C@@H]1CNC[C@@H](COc2ccc(Br)cc2N)O1)C(c1ccccc1)c1ccccc1 [Example 13, methyl N-[(1S)-1-[[2-[2-[(2R,6S)-6-[(2-amino-4-bromo-phenoxy)methyl]morpholin-2-yl]ethyl]phenyl]carbamoyl]-2,2-diphenyl-ethyl]carbamate] | 21
COC(=O)N[C@H](C(=O)Nc1ccccc1CC[C@@H]1CNC[C@@H](COc2ccc(-n3ccnc3)cc2)O1)C(c1ccccc1)c1ccccc1 [Example 14, methyl N-[(1S)-1-benzhydryl-2-[[2-[2-[(2R,6S)-6-[(4-imidazol-1-ylphenoxy)methyl]morpholin-2-yl]ethyl]phenyl]amino]-2-oxo-ethyl]carbamate] | 32
COC(=O)N[C@H](C(=O)Nc1ccccc1CC[C@@H]1CNC[C@@H](COc2ccc(-n3cncn3)cc2)O1)C(c1ccccc1)c1ccccc1 [Example 15, methyl N-[(1S)-1-benzhydryl-2-oxo-2-[[2-[2-[(2R,6S)-6-[[4-(1,2,4-triazol-1-yl)phenoxy]methyl]morpholin-2-yl]ethyl]phenyl]amino]ethyl] carbamate] | 12
COC(=O)N[C@H](C(=O)Nc1ccccc1CC[C@@H]1CNC[C@@H](COc2ccc(S(C)(=O)=O)cc2)O1)C(c1ccccc1)c1ccccc1 [Example 16, methyl N-[(1S)-1-benzhydryl-2-[[2-[2-[(2R,6S)-6-[(4-methylsulfonylphenoxy)methyl]morpholin-2-yl]ethyl]phenyl]amino]-2-oxo-ethyl]carbamate] | 19
COC(=O)N[C@H](C(=O)Nc1ccccc1CC[C@@H]1CNC[C@@H](COc2ccc(C#N)cc2)O1)C(c1ccccc1)c1ccccc1 [Example 17, methyl N-[(1S)-1-benzhydryl-2-[[2-[2-[(2R,6S)-6-[(4-cyanophenoxy)methyl]morpholin-2-yl]ethyl]phenyl]amino]-2-oxo-ethyl]carbamate] | 21
COC(=O)N[C@H](C(=O)Nc1ccccc1CC[C@@H]1CNC[C@@H](CSc2cccc(Cl)c2)O1)C(c1ccccc1)c1ccccc1 [Example 18, methyl N-[(1S)-1-benzhydryl-2-[[2-[2-[(2R,6S)-6-[(3-chlorophenyl)sulfanylmethyl]morpholin-2-yl]ethyl]phenyl]amino]-2-oxo-ethyl]carbamate] | 1.9
COC(=O)N[C@H](C(=O)Nc1ccccc1CC[C@@H]1CNC[C@@H](CSc2ccc(Cl)c(Cl)c2)O1)C(c1ccccc1)c1ccccc1 [Example 19, methyl N-[(1S)-1-benzhydryl-2-[[2-[2-[(2R,6S)-6-[(3,4-dichlorophenyl)sulfanylmethyl]morpholin-2-yl]ethyl]phenyl]amino]-2-oxo-ethyl]carbamate] | 8.7
COC(=O)N[C@H](C(=O)Nc1ccccc1CC[C@@H]1CNC[C@@H](CSc2cccc(Br)c2)O1)C(c1ccccc1)c1ccccc1 [Example 20, methyl N-[(1S)-1-benzhydryl-2-[[2-[2-[(2R,6S)-6-[(3-bromophenyl)sulfanylmethyl]morpholin-2-yl]ethyl]phenyl]amino]-2-oxo-ethyl]carbamate] | 2.9
COC(=O)N[C@H](C(=O)Nc1ccccc1CC[C@@H]1CNC[C@@H](CSc2ccc(S(C)(=O)=O)cc2)O1)C(c1ccccc1)c1ccccc1 [Example 21, methyl N-[(1S)-1-benzhydryl-2-[[2-[2-[(2R,6S)-6-[(4-methylsulfonylphenyl)sulfanyl-methyl]morpholin-2-yl]ethyl]phenyl]amino]-2-oxo-ethyl]carbamate] | 0.86
COC(=O)N[C@H](C(=O)Nc1ccccc1CC[C@@H]1CNC[C@@H](CSc2ccc(C#N)cc2)O1)C(c1ccccc1)c1ccccc1 [Example 22, methyl N-[(1S)-1-benzhydryl-2-[[2-[2-[(2R,6S)-6-[(4-cyanophenyl)sulfanylmethyl]morpholin-2-yl]ethyl]phenyl]amino]-2-oxo-ethyl]carbamate] | 1.1
COC(=O)N[C@H](C(=O)Nc1ccccc1CC[C@@H]1CNC[C@@H](CSc2cccc(S(C)(=O)=O)c2)O1)C(c1ccccc1)c1ccccc1 [Example 23, methyl N-[(1S)-1-benzhydryl-2-[[2-[2-[(2R,6S)-6-[(3-methylsulfonylphenyl)sulfanyl-methyl]morpholin-2-yl]ethyl]phenyl]amino]-2-oxo-ethyl]carbamate] | 0.8
